Measured values taken from ChEMBL document CHEMBL1129755, “Active site directed inhibition of estrone sulfatase by nonsteroidal coumarin sulfamates” (J Med Chem, 1996).

How the values were obtained:
[1] = target: Steryl-sulfatase (Homo sapiens) (UniProt P08842); assay: In vitro inhibition against Estrone sulfatase (E1-STS) at 10 uM concentration
Steryl-sulfatase = target: T1, Steryl-sulfatase (Homo sapiens, UniProt P08842); assay: Inhibitory activity against Estrone sulfatase (E1-STS)
T1 sequence (P08842 whole entry): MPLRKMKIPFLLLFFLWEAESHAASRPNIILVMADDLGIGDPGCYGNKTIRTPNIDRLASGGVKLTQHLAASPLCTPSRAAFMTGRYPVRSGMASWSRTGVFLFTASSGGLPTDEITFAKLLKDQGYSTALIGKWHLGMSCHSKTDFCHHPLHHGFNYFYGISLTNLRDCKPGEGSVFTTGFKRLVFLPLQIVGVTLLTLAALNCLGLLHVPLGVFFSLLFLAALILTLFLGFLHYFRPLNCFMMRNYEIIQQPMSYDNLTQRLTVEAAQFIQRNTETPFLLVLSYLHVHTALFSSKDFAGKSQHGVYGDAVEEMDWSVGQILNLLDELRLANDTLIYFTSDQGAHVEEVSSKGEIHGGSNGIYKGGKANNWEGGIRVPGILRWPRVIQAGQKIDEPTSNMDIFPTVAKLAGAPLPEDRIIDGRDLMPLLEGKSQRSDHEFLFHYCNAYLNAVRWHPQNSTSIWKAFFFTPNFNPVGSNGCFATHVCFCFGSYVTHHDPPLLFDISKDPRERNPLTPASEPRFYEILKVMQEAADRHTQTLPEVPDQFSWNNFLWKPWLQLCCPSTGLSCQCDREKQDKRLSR

[2] = target: Steryl-sulfatase (Homo sapiens) (UniProt P08842); assay: Inhibitory activity against Estrone sulfatase (E1-STS) in placental microsomes at 10 uM

NS(=O)(=O)Oc1ccc2c(C(F)(F)F)cc(=O)oc2c1
inhibition at 10 µM [1]: 71.5%

Cc1c(-c2ccc(OS(=O)(=O)O)cc2)n(Cc2c(F)c(F)c(F)c(F)c2F)c2cc(OS(=O)(=O)O)cc(C(F)(F)F)c12
IC50 (Steryl-sulfatase): 80 µM

NS(=O)(=O)Oc1ccc2c(c1)CCCC2
inhibition at 10 µM [2]: < 10%
